Experimental data taken from patent US11214803B2, “Modulators of YAP1 expression” (Ionis Pharmaceuticals, Inc., priority 2019, dated 2022).
Strand notation (5' to 3'): a small letter for the sugar, then the base; units joined by * are phosphorothioate-linked, units joined directly phosphodiester-linked; [ ] holds rarer units or linkages, { } end groups; capitals alone tell only the bases. e = 2'-O-(2-methoxyethyl) (MOE); k = constrained ethyl (cEt); [5mC] = 5-methylcytosine; d = 2'-deoxy (DNA); m = 2'-O-methyl

System: Yap1 mRNA
Assay: Dose-dependent inhibition of human Yap1 in SNU-449 cells (Example 9, RTS36584)
Type: cell-based
Details: free uptake; for % UTC (Yap1 mRNA): approximately 48 hours; for IC50: linear regression on a log/linear plot
Description: Modified oligonucleotides described in the studies above were tested at various doses in SNU-449 cells. Cultured SNU-449 cells at a density of 10,000 cells per well were treated using free uptake with modified oligonucleotides diluted to concentrations described in the tables below. After approximately 48 hours, Yap1 mRNA levels were measured as previously described using the Human Yap1 primer-probe set RTS36584. Yap1 mRNA levels were normalized to total RNA content, as measured by RIBOGREEN®. Results are presented in the tables below as percent control of the amount of Yap1 mRNA relative to untreated control cells (% UTC). IC50s were calculated using a linear regression on a log/linear plot of the data in excel.

| Substance | % UTC (Yap1 mRNA) (31.3 nM) [% UTC] | % UTC (Yap1 mRNA) (125.0 nM) [% UTC] | % UTC (Yap1 mRNA) (500.0 nM) [% UTC] | % UTC (Yap1 mRNA) (2000.00 nM) [% UTC] | IC50 [nM] |
| --- | --- | --- | --- | --- | --- |
| 1198287 (kA*kA*kA*dT*dT*dG*dT*d[5mC]*dT*d[5mC]*dA*dT*kG*e[5mC]*k[5mC]*eT; antisense) [compound 1198287] | 95 | 68 | 36 | 16 | 300 |
| 1198697 (kA*kG*dT*dG*dT*dA*dT*dG*dT*d[5mC]*dA*dG*kA*eA*kG*eA) [compound 1198697] | 60 | 29 | 7 | 1 | 40 |
| 1198384 (kT*dA*dT*dT*dA*dG*dA*dG*dT*dA*dT*kG*eT*kG*eG*k[5mC]; antisense) [compound 1198384] | 76 | 50 | 24 | 17 | 100 |
| 1197178 (kA*kA*kT*dT*dG*dT*d[5mC]*dT*d[5mC]*dA*dT*dG*d[5mC]*k[5mC]*kT*kT; antisense) [compound 1197178] | 64 | 36 | 14 | 4 | 100 |
| 1198698 (kA*kA*dG*dT*dG*dT*dA*dT*dG*dT*d[5mC]*dA*kG*eA*kA*eG) [compound 1198698] | 55 | 29 | 8 | 2 | 30 |
| 1197229 (kG*kG*kA*dA*mA*dT*dT*dG*dT*d[5mC]*dT*d[5mC]*dA*kT*kG*k[5mC]; antisense) [compound 1197229] | 54 | 32 | 16 | 7 | 30 |
| 1198526 (kA*kA*dG*dT*dG*dT*dA*dT*dG*dT*d[5mC]*eA*kG*eA*kA*eG; antisense) [compound 1198526] | 61 | 30 | 8 | 2 | 40 |
| 1197177 (kA*kT*kT*dG*dT*d[5mC]*dT*d[5mC]*dA*dT*dG*d[5mC]*d[5mC]*kT*kT*kA; antisense) [compound 1197177] | 56 | 29 | 8 | 2 | 30 |
| 1198397 (k[5mC]*dA*d[5mC]*dT*dT*dT*dT*dA*d[5mC]*dA*dT*kT*eA*kG*eG*kA; antisense) [compound 1198397] | 70 | 53 | 28 | 14 | 100 |
| 1009326 (kT*kA*kT*dT*dA*dG*dA*dG*dT*dA*dT*dG*dT*kG*kG*k[5mC]; antisense) [compound 1009326] | 59 | 35 | 14 | 4 | 50 |
| 1198424 (k[5mC]*dT*d[5mC]*dT*dT*dA*dT*dA*dT*dG*dG*kT*eT*kT*eT*kG; antisense) [compound 1198424] | 64 | 44 | 24 | 9 | 100 |
| 1198211 (kA*kT*dT*dA*dG*dA*dG*dT*dA*dT*dG*eT*eG*eG*k[5mC]*kA) [compound 1198211] | 72 | 37 | 23 | 12 | 100 |
| 1198960 (kA*kA*dG*dT*dG*dT*dA*dT*dG*dT*d[5mC]*kA*dG*kA*dA*kG; antisense) [compound 1198960] | 77 | 35 | 8 | 2 | 100 |
| 1200785 (kA*kT*kT*dG*dT*mC*dT*d[5mC]*dA*dT*dG*d[5mC]*d[5mC]*kT*kT*kA; antisense) [compound 1200785] | 98 | 73 | 42 | 24 | 400 |
| 1198724 (kA*eG*kA*dG*dT*dA*dT*dG*dT*dG*dG*d[5mC]*eA*eA*kT*kA; antisense) [compound 1198724] | 56 | 25 | 8 | 3 | < 30 |
| 1197313 (kA*kG*kT*dG*mU*dA*dT*dG*dT*d[5mC]*dA*dG*dA*kA*kG*kA; antisense) [compound 1197313] | 71 | 38 | 16 | 6 | 100 |
| 1198382 (kT*dT*dA*dG*dA*dG*dT*dA*dT*dG*dT*kG*eG*k[5mC]*eA*kA; antisense) [compound 1198382] | 77 | 56 | 36 | 18 | 200 |
| 1198543 (kA*kT*kT*dG*dT*d[5mC]*dT*d[5mC]*dA*dT*dG*d[5mC]*k[5mC]*kT*kT*eA; antisense) [compound 1198543] | 75 | 42 | 19 | 6 | 100 |
| 1198815 (kT*kA*dG*dA*dG*dT*dA*dT*dG*dT*dG*kG*e[5mC]*kA*eA*kT; antisense) [compound 1198815] | 84 | 64 | 34 | 15 | 200 |
| 1198613 (kA*kA*kA*dG*dT*dG*dT*dA*dT*dG*dT*d[5mC]*kA*kG*kA*eA; antisense) [compound 1198613] | 80 | 25 | 7 | 2 | 100 |
| 1198638 (kA*kG*dA*dG*dT*dA*dT*dG*dT*dG*dG*d[5mC]*kA*eA*kT*eA; antisense) [compound 1198638] | 70 | 42 | 13 | 4 | 100 |
| 1198297 (kA*kT*kT*dA*dG*dA*dG*dT*dA*dT*dG*dT*kG*eG*k[5mC]*eA) [compound 1198297] | 67 | 42 | 16 | 7 | 100 |
| 1197271 (kT*kT*kT*dA*mA*dA*dG*dT*dG*dT*dA*dT*dG*kT*k[5mC]*kA; antisense) [compound 1197271] | 70 | 47 | 19 | 8 | 100 |
| 1197214 (kA*kG*kT*dG*dT*dA*dT*dG*dT*d[5mC]*dA*dG*dA*kA*kG*kA; antisense) [compound 1197214] | 88 | 31 | 7 | 1 | 100 |
